According to PMC11009648, “Development of an orally bioavailable mSWI/SNF ATPase degrader and acquired mechanisms of resistance in prostate cancer” (Proceedings of the National Academy of Sciences of the …, 2024):

Columns and labels:
[1] = tested on: 22Rv1-wild type (WT) cells; assay: CellTiter-Glo cell viability assay in 22Rv1 wild type cells; format: cell-based, human; settings: 22Rv1 WT
Description: (§1) Cells were seeded onto 96-well plates in appropriate culture media and allowed to adhere overnight prior to treatment. The next day, a nine-point serial dilution of the compounds was prepared and added to the plates. After treatment, the cells were then incubated for an additional 5 d. On the last day of treatment, the CellTiter-Glo cell viability assay (Promega) was then executed in accordance with the manufacturer’s guidelines. The signal (luminescence) from each well was determined using an Infinite M1000 Pro plate reader (Tecan). Relative viability was determined by dividing the signal from each well by the average of the control condition in each experiment. Finally, the data were analyzed and plotted using GraphPad Prism.

[2] = tested on: 22Rv1 AUR-3 cells; assay: CellTiter-Glo cell viability assay in AU-15330-resistant 22Rv1 AUR-3 cells (ABCB1 overexpression); format: cell-based, human; settings: for IC50: 22Rv1 AUR-3
From the text: (§2) The rising importance of the mSWI/SNF complex as a therapeutic target and the success ([32], [33]) of developing next-generation PROTAC degraders targeting the mSWI/SNF complex prompted us to proactively study potential resistance mechanisms that cancer cells may develop in response to this class of compounds. To achieve this, we cultured 22Rv1 cells in either DMSO or a lethal dose of AU-15330 for 1 mo, refreshing the drug twice a week, until resistant cells emerged. Upon obtaining a population of resistant cells, we unbiasedly characterized the genomic and transcriptomic alterations using whole-exome sequencing and bulk RNA sequencing (RNA-seq), respectively (Fig. 3A).
as §1

[3] = tested on: mutant forms of SMARCA4 in HEK293 cells; assay: Immunoblot of overexpressed flag-tagged mutant SMARCA4 in HEK293 cells; format: cell-based, human; settings: 24 h treatment
From the text: GFP-SMARCA4 (Addgene, 65391) was used for the SMARCA4 mutation clone. The pLVX-TetOne-Puro-hAXL (Addgene, 124797) backbone was used as a starting point prior to undergoing a series of modifications. The endogenous target gene was removed, and a multiple cloning site (MCS) was inserted downstream of the endogenous promoter. Custom gblocks containing Flag-tagged WT SMARCA4 were synthesized (Integrated DNA Technologies, IDT) and inserted into the MCS. Subsequently, custom gblocks containing SMARCA4-N1540S, SMARCA4-I1551del, or SMARCA4-F1485S were inserted to replace the respective portion of WT SMARCA4. Finally, the TRE3G promoter was replaced with hPGK.
HEK293 cells were seeded overnight and transfected with Lipofectamine 3,000 (Thermo Fisher) according to the manufacturer’s protocol. Media were changed 8 h post transfection and incubated for 48 h prior to conducting further analyses.

[4] = tested on: SMARCA4, SMARCA2 and PBRM1 in 22Rv1 AUR-2 cells; assay: Immunoblot of target degradation in 22Rv1 AUR-2 cells; format: cell-based, human; settings: 4 h, AU-15330 1 µM, AU-24118 0.1 µM
Description: (§3) Lysates were prepared using radioimmunoprecipitation assay buffer (Thermo Fisher) with cOmpleteTM protease inhibitor cocktail tablets (Sigma-Aldrich) added. Total protein for each sample was determined using the DC Protein Assay (Bio-Rad) according to the manufacturer’s instructions. A standardized quantity of protein was resolved using NuPAGE Tris-Acetate Protein Gel (3 to 8%) (Thermo Fisher) or NuPAGE Bis-Tris Protein Gel (4 to 12%) (Thermo Fisher) and probed with primary antibodies as indicated. Following incubation with secondary antibodies conjugated with horseradish peroxidase, membranes were imaged on an Odyssey Fc Imager (LiCOR Biosciences).

[5] = tested on: SMARCA4, PBRM1 and SMARCA2 in 22Rv1-AUR-3 xenografts; assay: 22Rv1-AUR-3 xenograft pharmacodynamics study; settings: 5 d; AU-15330 60 mg/kg retro-orbital; zosuquidar 10, 20 or 40 mg/kg i.p.
Description: as §3
For the 22Rv1-AUR-3 model, bilateral subcutaneous dorsal flank tumors were established by injecting 1 × 10^6 cells suspended in a 1:1 mixture of serum-free medium and Matrigel (BD Biosciences). Once tumors reached an average volume of 100 mm^3, mice were randomized and treated with either 60 mg/kg AU-15330 by retro-orbital vein injection 3 times every other day and with or without 10 mg/kg, 20 mg/kg, or 40 mg/kg of zosuquidar by intraperitoneal injection daily for 5 d per week. […] Animals harboring tumors approaching that size were immediately killed. All in vivo studies were approved by the U-M IACUC.

[6] = tested on: VCaP castration-resistant tumor model; parameters: method as in PMID 34937944; settings: VCaP CRPC model, AU-15330 60 mg/kg; not an arm of this study; cited from earlier work
[7] = tested on: 22Rv1 AUR-2 cells; assay: CellTiter-Glo cell viability assay in AU-15330-resistant 22Rv1 AUR-2 cells (SMARCA4 mutation); format: cell-based, human; settings: dose-response (Fig. S4C)
From the text: as §2
as §1, with “On the last day of treatment, the CellTiter-Glo cell viability assay (Promega) was then executed in accordance with the manufacturer’s guidelines.” left out

[8] = tested on: VCaP castration-resistant tumor model; assay: CRPC-VCaP xenograft efficacy study; format: in vivo; settings: castrated CB17 SCID mice; enzalutamide 10 mg/kg oral gavage five times weekly; AU-24118 15 mg/kg oral gavage three times weekly
Description: Six-week-old CB17 (male) SCID mice were obtained from the breeding colony at the U-M. For all studies, tumors were measured two or three times per week using digital calipers, and tumor volumes were calculated using the formula (π/6) (L × W2), where L is length and W is width of the tumor. At study endpoint, mice were killed, and tumors were extracted and weighed. […] Once tumors grew to a palpable size (~400 mm^3), the mice were physically castrated. Once those tumors regained their precastration size, mice were then randomized and treated with either 15 mg/kg AU-24118 or vehicle by oral gavage 3 d per week with or without enzalutamide (10 mg/kg) by oral gavage 5 d per week for 4 wk.
IHC was performed on 4 µm formalin-fixed, paraffin-embedded tissue sections using BRG1 (SMARCA4), AR, FOXA1, ERG and C-Myc. The IHC process was performed on the Ventana ULTRA automated slide staining system using the Omnimap and Ultraview Universal DAB detection kit. The antibody details are provided in SI Appendix, Table S1. The following commercial kits from Roche-Ventana Medical System were used: Discovery CC1 (Cat No. 950-500), Discovery CC2 (Cat No. 950-123), OptiView Universal DAB Detection Kit (Cat No. 760-700), and OmniMap Universal DAB Detection Kit (Cat No. 760-149).
The TUNEL and In Situ Cell Death Detection Kits (TMR Red #12156792910; Roche Applied Science) were used to examine apoptosis, following the manufacturer’s instructions. Briefly, fixed sections were permeabilized with Triton X-100 and then washed in phosphate-buffered saline. Labeling was carried out at 37 °C for 60 min by addition of a reaction buffer that contained enzymes. A Zeiss Axiolmager M1 microscope was used to obtain images.

[9] = Fig. 4G/H, 5 d, without zosuquidar
[10] = Homo sapiens, 22Rv1, 120 h, Fig. 4G/H, 5 d, without zosuquidar
[11] = Homo sapiens, 22Rv1, Fig. S6A, siABCB1
[12] = Homo sapiens, 22Rv1, Fig. S6A, siNT (negative control)

With `Cc1cc([C@H](C(=O)N2C[C@H](O)C[C@H]2C(=O)N[C@@H](CC(=O)N2CCC(N3CCC(C#Cc4ccc(C(=O)NC5C(C)(C)C(Oc6ccc(C#N)c(Cl)c6)C5(C)C)cc4)CC3)CC2)c2ccc(-c3scnc3C)cc2)C(C)C)on1` (stereo partly drawn) [ARD-61, reference compound] the IC50 [1, 9] was 800 nM, the “sensitivity of AUR-3 cells versus WT” value ([2]; 22Rv1 AUR-3 cells (Fig. S5 E and F)) was “dramatically less sensitive” and the IC50 [2, 9] was greater than 30000 nM.
For `Cc1ncsc1-c1ccc([C@H](C)NC(=O)[C@@H]2C[C@@H](O)CN2C(=O)[C@@H](NC(=O)CN2CCN(c3cc(-c4ccccc4O)nnc3N)CC2)C(C)(C)C)cc1` [AU-15330], the IC50 [1, 10] was 2.3 nM, the IC50 ([1]; Homo sapiens, 22Rv1, Fig. S5F) was 40.7 nM and the IC50 [1, 11] was 48.9 nM. For the same molecule, the IC50 [1, 12] was 45.5 nM, the “degradation of overexpressed mutant SMARCA4, immunoblot” value [3] was “resistant to degradation” and the IC50 [2, 10] was 28500 nM. The IC50 ([2]; Homo sapiens, 22Rv1, Fig. S5F) was 20500 nM, the IC50 [2, 11] was 990 nM and the IC50 [2, 12] was greater than 30000 nM. For the same molecule, the “degradation of SMARCA2 and PBRM1, immunoblot” value [4] was “able to degrade SMARCA2 and PBRM1”, the “degradation of SMARCA4, immunoblot” value [4] was “unable to degrade SMARCA4” and the “degradation of target proteins in tumors, immunoblot” value [5] was “unable to degrade any of its target proteins alone”. The “tumor response as a single agent” value [6] was “more modest effects as a single agent” and the “ability to cause a decrease in cell viability” value [7] was “unable”.
With `CNC(=O)c1ccc(N2C(=S)N(c3ccc(C#N)c(C(F)(F)F)c3)C(=O)C2(C)C)cc1F` [Enzalutamide, enzalutamide, reference compound] the tumor response [8] was “moderate tumor growth inhibition”.
